In test [1] the test system is IL6. Description: IL-6 Quantification Assay (ELISA), LPS-stimulated RAW 264.7. Set-up: inhibition: dose or concentration left out as unconfirmed. The settings on record: Mus musculus, RAW264.7; read-out: IL-6: % inh. Format: cell-based. In general terms: In an ELISA, binding on a coated surface is turned into a signal by an enzyme label.
Test [2] deals with Smad2/Smad3 phosphorylation. Kind of test: Phospho-Smad2/3 Inhibition Assay (western blot), Panc-1. Format: cell-based, human. The settings on record: at 10 μM, Panc-1 pancreatic cancer cell line; starred symbols = activation. The method, boiled down:
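Panc-1 cells (KRas G12D), starved overnight in 0.5% FBS, treated 3 h at 37° C with compound at 10 μM final (0.3% DMSO) or serial dilutions for IC50, then stimulated with 10 ng/ml TGF-b1 for 1 h. Phospho-Smad2 (Ser465/467) and phospho-Smad3 (Ser423/425) detected by western blot.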

Test [3] concerns KRas wild type. Kind of test: Ras GTP Binding Domain Inhibition Assay (Ras Superfamily Assay). The following applies: for KRas wild type + SOS: % inh.: with SOS; for KRas wild type: % inh.: without SOS. The essentials:
(§1)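 Binding of 100 nM fluorescent GTP (Cy3 or Cy5, 45 min, room temperature) was read after washes from plate-captured His-tagged protein. Beforehand, compounds at 20 μM or in dilution series for IC50 sat 3 h on the protein in Tris buffer pH 7.4 or 7.0 with 1% DMSO, Sos GEF optionally added for the last hour.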

In test [4] the target is T1, Rac-1 (Homo sapiens, UniProt P63000).
T1 construct: made in house
The test is described as above. The settings on record: read-out: Rac-1: % inh. The essentials:
as §1

Test [5] has as its system KRas G12D mutant. The description is as above. The following applies: for KRas G12D mutant + SOS: % inh.: with SOS; for KRas G12D mutant: % inh.: without SOS. The method, boiled down: as §1

Regarding `COc1ccnc(Nc2nc(-c3nccn3CCN)nn3cc(-c4ccn(C)n4)c(C)c23)c1` [Compound 188, 2-(1-(2-Aminoethyl)-1H-imidazol-2-yl)-N-(4-methoxypyridin-2-yl)-5-methyl-6-(1-methyl-1H-pyrazol-3-yl)pyrrolo[2,1-f][1,2,4]triazin-4-amine], the inhibition in test [1] lay within 50 to 74%. Further, in test [2], the “% inh of Smad2/3 phosphorylation in Panc-1” value (“% inh … in Panc-1” for short) is “B (B = 26-45% inhibition)”. Also, in test [3] (at 20 μM), the “KRas wild type + SOS: % inh.” value is recorded as “D (D = 76-100% inhibition)” and the “KRas wild type: % inh.” value is listed as “D (D = 76-100% inhibition)”. The inhibition at 20 µM in test [4] lay in the range of 76 to 100%. Also, in test [5] (at 20 μM), the “KRas G12D mutant + SOS: % inh.” value is recorded as “D (D = 76-100% inhibition)” and the “KRas G12D mutant: % inh.” value was “D (D = 76-100% inhibition)”.

Consider `COc1ccnc(Nc2nc(-c3nccn3C)nn3cc(-c4ccn(C)n4)c(C(=O)NCC(F)(F)F)c23)c1` [Compound 174, 4-((4-Methoxypyridin-2-yl)amino)-2-(1-methyl-1H-imidazol-2-yl)-6-(1-methyl-1H-pyrazol-3-yl)-N-(2,2,2-trifluoro-ethyl)pyrrolo[2,1-f][1,2,4]triazine-5-carboxamide], for which the inhibition in test [1] was in the range of 1 to 24%. For the same compound, in test [2], the “% inh … in Panc-1” value is “A* (A* = 1-25% activation)”. Moreover, in test [3] (20 μM compound), the “KRas wild type + SOS: % inh.” value is on record as “B (B = 26-49% inhibition)” and the “KRas wild type: % inh.” value was “B (B = 26-49% inhibition)”. The inhibition at 20 µM in test [4] is 50 to 75%. For the same compound, in test [5] (20 μM compound), the “KRas G12D mutant + SOS: % inh.” value was “B (B = 26-49% inhibition)” and the “KRas G12D mutant: % inh.” value is given as “B (B = 26-49% inhibition)”.

For the compound `COc1ccnc(Nc2nc(-c3nccn3C)nn3cc(-c4c(F)cccc4OC)c(-c4ccccc4)c23)c1` [Compound 217, 6-(2-Fluoro-6-methoxyphenyl)-N-(4-methoxypyridin-2-yl)-2-(1-methyl-1H-imidazol-2-yl)-5-phenylpyrrolo[2,1-f][1,2,4]triazin-4-amine], the inhibition in test [1] is 75 to 100%. Besides, the “% inh … in Panc-1” value in test [2] was “C (C = 46-75% inhibition)”. In addition, in test [3] (at 20 μM), the “KRas wild type + SOS: % inh.” value was “B (B = 26-49% inhibition)” and the “KRas wild type: % inh.” value was “C (C = 50-75% inhibition)”. In addition, the inhibition at 20 µM in test [4] fell in the range of 50 to 75%. In addition, in test [5] (at 20 μM), the “KRas G12D mutant + SOS: % inh.” value is recorded as “B (B = 26-49% inhibition)” and the “KRas G12D mutant: % inh.” value was “C (C = 50-75% inhibition)”.

In the case of `COc1cnc(Nc2nc(-c3nccn3C)nn3cc(-c4ccn(C)n4)c(C)c23)cc1C` [Compound 236, N-(5-Methoxy-4-methylpyridin-2-yl)-5-methyl-2-(1-methyl-1H-imidazol-2-yl)-6-(1-methyl-1H-pyrazol-3-yl)pyrrolo[2,1-f][1,2,4]triazin-4-amine], the inhibition in test [1] came out at 0%. Besides, the “% inh … in Panc-1” value in test [2] is 0 (0 = 0% inhibition). Also, in test [3] (at 20 μM), the “KRas wild type + SOS: % inh.” value is “B (B = 26-49% inhibition)” and the “KRas wild type: % inh.” value is listed as “B (B = 26-49% inhibition)”. Also, the inhibition at 20 µM in test [4] fell in the range of 50 to 75%. Also, in test [5] (at 20 μM), the “KRas G12D mutant + SOS: % inh.” value was “B (B = 26-49% inhibition)” and the “KRas G12D mutant: % inh.” value is “C (C = 50-75% inhibition)”.

On to `COc1ccnc(Nc2nc(-c3nccn3C)nn3cc(-c4ccn(C)n4)c(C(=O)NCCN(C)C)c23)c1` [Compound 177, N-(2-(Dimethylamino)ethyl)-4-((4-methoxypyridin-2-yl)amino)-2-(1-methyl-1H-imidazol-2-yl)-6-(1-methyl-1H-pyrazol-3-yl)pyrrolo[2,1-f][1,2,4]triazine-5-carboxamide], for which the inhibition in test [1] is 75 to 100%. Besides, in test [2], the “% inh … in Panc-1” value is on record as “A (A = 1-25% inhibition)”. Further, in test [3] (20 μM compound), the “KRas wild type + SOS: % inh.” value is given as “D (D = 76-100% inhibition)” and the “KRas wild type: % inh.” value was “D (D = 76-100% inhibition)”. In addition, the inhibition at 20 µM in test [4] was 76 to 100%. Besides, in test [5] (20 μM compound), the “KRas G12D mutant + SOS: % inh.” value was “D (D = 76-100% inhibition)” and the “KRas G12D mutant: % inh.” value is recorded as “C (C = 50-75% inhibition)”.

Regarding `COc1ccnc(Nc2nc(-c3nccn3CCNC(=O)CCCC[C@H]3SC[C@H]4NC(=O)N[C@H]43)nn3cc(-c4ccn(C)n4)c(C)c23)c1` [Compound 216, N-(2-(2-(4-((4-methoxypyridin-2-yl)amino)-5-methyl-6-(1-methyl-1H-pyrazol-3-yl)pyrrolo[2,1-f][1,2,4]triazin-2-yl)-1H-imidazol-1-yl)ethyl)-5-((3aR,4R,6aS)-2-oxohexahydro-1H-thieno[3,4-d]imidazol-4-yl)pentanamide], the inhibition in test [1] fell in the range of 50 to 74%. Also, the “% inh … in Panc-1” value in test [2] is recorded as “C* (C* = 46-75% activation)”. For the same compound, in test [3] (at 20 μM), the “KRas wild type + SOS: % inh.” value was “D (D = 76-100% inhibition)” and the “KRas wild type: % inh.” value was “D (D = 76-100% inhibition)”. Besides, the inhibition at 20 µM in test [4] was 76 to 100%. Also, in test [5] (at 20 μM), the “KRas G12D mutant + SOS: % inh.” value is “D (D = 76-100% inhibition)” and the “KRas G12D mutant: % inh.” value is “D (D = 76-100% inhibition)”.

Take `Cc1c(-c2ccn(C)n2)cn2nc(-c3nccn3C)nc(Nc3ccc(C(F)(F)F)cn3)c12` [Compound 233, 5-Methyl-2-(1-methyl-1H-imidazol-2-yl)-6-(1-methyl-1H-pyrazol-3-yl)-N-(5-(trifluoromethyl)pyridin-2-yl)pyrrolo[2,1-f][1,2,4]triazin-4-amine]: the inhibition in test [1] was 25 to 49%. In addition, the “% inh … in Panc-1” value in test [2] is “B (B = 26-45% inhibition)”. Moreover, in test [3] (at 20 μM), the “KRas wild type + SOS: % inh.” value is reported as “D (D = 76-100% inhibition)” and the “KRas wild type: % inh.” value is on record as “D (D = 76-100% inhibition)”. For the same compound, the inhibition at 20 µM in test [4] is 76 to 100%. In test [5] (at 20 μM), the “KRas G12D mutant + SOS: % inh.” value is on record as “D (D = 76-100% inhibition)” and the “KRas G12D mutant: % inh.” value was “D (D = 76-100% inhibition)”.

In the case of `Cc1c(-c2ccn(C)n2)cn2nc(-c3nccn3C)nc(Nc3cc4c(cn3)CCO4)c12` [Compound 221, N-(5-Methyl-2-(1-methyl-1H-imidazol-2-yl)-6-(1-methyl-1H-pyrazol-3-yl)pyrrolo[2,1-f][1,2,4]triazin-4-yl)-2,3-dihydrofuro[3,2-c]pyridin-6-amine], the inhibition in test [1] was in the range of 25 to 49%. Moreover, in test [2], the “% inh … in Panc-1” value is given as “A (A = 1-25% inhibition)”. Besides, in test [3] (at 20 μM), the “KRas wild type + SOS: % inh.” value is “D (D = 76-100% inhibition)” and the “KRas wild type: % inh.” value is recorded as “D (D = 76-100% inhibition)”. Further, the inhibition at 20 µM in test [4] was in the range of 76 to 100%. Further, in test [5] (at 20 μM), the “KRas G12D mutant + SOS: % inh.” value is “D (D = 76-100% inhibition)” and the “KRas G12D mutant: % inh.” value was “D (D = 76-100% inhibition)”.

In the case of `CO[C@H]1CC[C@H](Nc2nc(-c3nccn3C)nn3cc(-c4ccn(C)n4)c(C(=O)NCCN4CCOCC4)c23)C1` (racemic) [Compound 185, rac 4-(((1S,3S)-3-methoxycyclo-pentyl)amino)-2-(1-methyl-1H-imidazol-2-yl)-6-(1-methyl-1H-pyrazol-3-yl)-N-(2-morpholino-ethyl)pyrrolo[2,1-f][1,2,4]triazine-5-carboxamide], the inhibition in test [1] fell in the range of 25 to 49%. The “% inh … in Panc-1” value in test [2] is “B* (B* = 26-45% activation)”. In test [3] (20 μM compound), the “KRas wild type + SOS: % inh.” value is on record as 0 (0 = 0% inhibition) and the “KRas wild type: % inh.” value is “A (A = 1-25% inhibition)”. Besides, in test [4], the inhibition at 20 µM worked out at 0%. Further, in test [5] (20 μM compound), the “KRas G12D mutant + SOS: % inh.” value is given as 0 (0 = 0% inhibition) and the “KRas G12D mutant: % inh.” value was “A (A = 1-25% inhibition)”.

With `COc1ccnc(Nc2nc(-c3nccn3C)nn3cc(-c4ccn(C)n4)c(C(=O)N4CCOCC4)c23)c1` [Compound 179, (4-((4-Methoxypyridin-2-yl)amino)-2-(1-methyl-1H-imidazol-2-yl)-6-(1-methyl-1H-pyrazol-3-yl)pyrrolo[2,1-f][1,2,4]triazin-5-yl)(morpho-lino)methanone], the inhibition in test [1] was 50 to 74%. Also, the “% inh … in Panc-1” value in test [2] was “C* (C* = 46-75% activation)”. Moreover, in test [3] (20 μM compound), the “KRas wild type + SOS: % inh.” value was “D (D = 76-100% inhibition)” and the “KRas wild type: % inh.” value is “D (D = 76-100% inhibition)”. For the same compound, the inhibition at 20 µM in test [4] was 76 to 100%. For the same compound, in test [5] (20 μM compound), the “KRas G12D mutant + SOS: % inh.” value was “D (D = 76-100% inhibition)” and the “KRas G12D mutant: % inh.” value is on record as “D (D = 76-100% inhibition)”.

On to `CO[C@H]1C[C@H](Nc2nc(-c3nccn3C)nn3cc(-c4ccc(CCN)cc4)c(-c4ccccc4)c23)C1.Cl` [Compound 207, 6-(4-(2-Aminoethyl)phenyl)-N-((1r,3r)-3-methoxycyclobutyl)-2-(1-methyl-1H-imidazol-2-yl)-5-phenylpyrrolo[2,1-f][1,2,4]triazin-4-amine hydrochloride salt], for which the inhibition in test [1] lay within 75 to 100%. Further, in test [2], the “% inh … in Panc-1” value is given as “D (D = 76-100% inhibition)”. Further, in test [3] (at 20 μM), the “KRas wild type + SOS: % inh.” value is reported as “B (B = 26-49% inhibition)” and the “KRas wild type: % inh.” value was “B (B = 26-49% inhibition)”. The inhibition at 20 µM in test [4] was 1 to 25%. In addition, in test [5] (at 20 μM), the “KRas G12D mutant + SOS: % inh.” value is recorded as “A (A = 1-25% inhibition)” and the “KRas G12D mutant: % inh.” value is given as “B (B = 26-49% inhibition)”.

(Values after US12459951B2, “Compounds that interact with RAS superfamily proteins for treatment of cancers, inflammatory diseases, rasopathies, and fibrotic disease” (SHY Therapeutics, LLC, priority 2022, dated 2025).)
